Assay results taken from US20040171489A1, “Synergistic active compound combinations for controlling harmful plants” (priority 1998, published 2004).
Where a name gives a salt, the structure may show the parent alone.

Columns and labels:
Ipomoea hederacea = experiment: Example 17 field trial, pre-emergence: herbicidal effect; type: in vivo; settings: 16 days after application
Source text: (§1) Seeds or rhizome pieces of monocotyledonous and dicotyledonous weed plants are placed in sandy loam soil in pots and covered with soil. The compositions, formulated in the form of concentrated aqueous solutions, wettable powders or emulsion concentrates, are then applied to the surface of the soil cover as aqueous solution, suspension or emulsion at an application rate of 600 to 800 l of water/ha (converted), in various dosages. After the treatment, the pots are placed in a greenhouse and kept under good growth conditions for the weeds. After the test plants have emerged, the damage to the plants or the negative effects on the emergence is scored visually after a test period of 3 to 4 weeks by comparison with untreated controls. As shown by the test results, the compositions according to the invention have good herbicidal pre-emergence activity against a broad spectrum of weed grasses and broad-leaved weeds.
(§2) The herbicidal efficacy of the active compounds or active compound mixtures was scored visually using the treated plots in comparison to untreated control plots. The damage and development of all above-ground parts of the plants were recorded. Scoring was carried out using a percentage scale (100% effect=all plants killed; 50% effect=50% of the plants and the green parts of the plants killed; 0% effect=no noticeable effect=like control plot. The scores of in each case 4 plots were averaged.
(§3) If the observed activity values already exceed the formal sum of the values for the trials with the individual applications, they also exceed the expected value according to Colby which is calculated using the following formula and which is likewise considered to be an indication of synergism (cf. S. R. Colby; in Weeds 15 (1967) p. 20 to 22):
(§4) Crop plants were grown outdoors on plots under natural outdoor conditions, and seeds or rhizome pieces of typical harmful plants were laid out or the natural weed growth was utilized. Treatment with the compositions according to the invention was carried out after the harmful plants had emerged and the crop plants were, generally, at the 2- to 4-leaf stage; in some cases (as stated), application of individual active compounds or active compound combinations was carried out pre-emergence (cf. Section 1) or post-emergence (cf. Section 2) or as a sequential treatment partly pre-emergence and/or post-emergence. After the application, for example 2, 4, 6 and 8 weeks after the application, the effect of the preparations was scored visually by comparison with untreated controls (cf. scoring in Section 1). In the field trial as well, the compositions according to the invention have synergistic herbicidal activity against a broad spectrum of economically important weed grasses and broad-leaved weeds. […] Moreover, the effects in essential phases of the scoring period were above the expected values according to Colby, also indicating synergism. In contrast, the crop plants were, as a consequence of the treatments with the herbicidal compositions, damaged only to a small degree, if at all.

Setaria faberi = experiment: as above; type: in vivo; settings: 16 days after application
Source text: as §1, §2, §3, §4

Zea mays (corn) = experiment: Example 17 field trial, pre-emergence: crop damage; type: in vivo; settings: in vivo
Source text: as §1
The herbicidal efficacy of the active compounds or active compound mixtures was scored visually using the treated plots in comparison to untreated control plots. The damage and development of all above-ground parts of the plants were recorded. […]
as §3
Crop plants were grown outdoors on plots under natural outdoor conditions, and seeds or rhizome pieces of typical harmful plants were laid out or the natural weed growth was utilized. […] After the application, for example 2, 4, 6 and 8 weeks after the application, the effect of the preparations was scored visually by comparison with untreated controls (cf. scoring in Section 1). […]

Galium aparine = experiment: Example 10 pre-emergence application, fall: herbicidal effect; type: in vivo; settings: 1000 g of ai/ha; 169 days after application
Source text: as §1, §2, §3, §4

winter barley [1] = experiment: Example 5 field trial, 2-4 leaf stage: crop damage; type: in vivo, Hordeum vulgare; settings: winter barley (Hordeum vulgare), in vivo, 28 days
Description: as §2, §3
as §4, with “In contrast, the crop plants were, as a consequence of the treatments with the herbicidal compositions, damaged only to a small degree, if at all.” left out

Papaver rhoeas = experiment: Example 5 field trial, 2-4 leaf stage: herbicidal effect; type: in vivo; settings: 2.5 g of ai/ha; 28 days after application
Description: as §2, §3
as §4, with “In contrast, the crop plants were, as a consequence of the treatments with the herbicidal compositions, damaged only to a small degree, if at all.” left out

Euphorbia heterophylla = experiment: Example 20 field trial, 3-leaf stage: herbicidal effect; type: in vivo; settings: 31 days after application
Description: as §2, §3, §4

Oryza sativa (rice) [2] = experiment: Example 20 field trial, 3-leaf stage: crop damage; type: in vivo; settings: in vivo
Description: as §2, §3, §4

Monochoria vaginalis = experiment: Example 22 field trial, 2-leaf stage: herbicidal effect; type: in vivo; settings: 14 days after application
Description: as §2, §3, §4

Oryza sativa (rice) [3] = experiment: Example 22 field trial, 2-leaf stage: crop damage; type: in vivo
Description: as §2, §3, §4

Matricaria chamomilla = experiment: Example 14 field trial, 2- to 4-leaf stage: herbicidal effect; type: in vivo; settings: 28 days after application
Description: as §2, §3, §4

summer wheat [4] = experiment: Example 14 field trial, 2- to 4-leaf stage: crop damage; type: in vivo, Triticum aestivum; settings: 28 days after application
Description: The damage and development of all above-ground parts of the plants were recorded.
Crop plants were grown outdoors on plots under natural outdoor conditions, and seeds or rhizome pieces of typical harmful plants were laid out or the natural weed growth was utilized.

Lamium amolexicaule = experiment: Example 15 field trial, 2- to 4-leaf stage: herbicidal effect; type: in vivo; settings: 28 days after application
Description: as §2, §3, §4

winter wheat [5] = experiment: Example 15 field trial, 2- to 4-leaf stage: crop damage; type: in vivo, Triticum aestivum; settings: 28 days after application
Description: as §2, §3, §4

Sorghum verticilliflorum = experiment: Example 13 field trial, 2- to 4-leaf stage: herbicidal effect; type: in vivo; settings: 17 days after application
Description: as §2, §3, §4

summer wheat [6] = experiment: Example 13 field trial, 2- to 4-leaf stage: crop damage; type: in vivo, Triticum aestivum; settings: 17 days after application
Description: as §2, §3, §4

winter barley [7] = experiment: Example 9 field trials, application 1-3 leaf stage broad-leaved weeds: crop damage; type: in vivo, Hordeum vulgare; settings: 100 g of ai/ha; 120 to 160 days after application
Description: as §2, §3
as §4, with “In contrast, the crop plants were, as a consequence of the treatments with the herbicidal compositions, damaged only to a small degree, if at all.” left out

winter wheat [8] = experiment: as above; type: in vivo, Triticum aestivum; settings: 100 g of ai/ha; 120 to 160 days after application
Description: as §2, §3
as §4, with “In contrast, the crop plants were, as a consequence of the treatments with the herbicidal compositions, damaged only to a small degree, if at all.” left out

Alopecurus myosuroides = experiment: Example 9 field trials, application 1-3 leaf stage broad-leaved weeds: herbicidal effect; type: in vivo; settings: 100 g of ai/ha; 120 to 160 days after application
Description: as §2, §3, §4

Capsella bursa-pastoris = experiment: as above; type: in vivo; settings: 100 g of ai/ha; 120 to 160 days after application
Description: as §2, §3, §4

CS(=O)(=O)c1cc(C(F)(F)F)ccc1C(=O)c1cnoc1C1CC1 [(B3.4.5), isoxaflutole, reference compound]
herbicidal effect, IPOHE (Ipomoea hederacea; 105 g of ai/ha): 87%
herbicidal effect, IPOHE (Ipomoea hederacea; 210 g of ai/ha): 85%
herbicidal effect, SETFA (Setaria faberi; 105 g of ai/ha): 90%
herbicidal effect, SETFA (Setaria faberi; 210 g of ai/ha): 93%
damage, ZEAMA (Zea mays (corn)): 0%

CCC(CC)Nc1c([N+](=O)[O-])cc(C)c(C)c1[N+](=O)[O-] [(B1.2.2), pendimethalin]
herbicidal effect, GALAP (Galium aparine): 30%

COc1nc(C)nc(NC(=O)NS(=O)(=O)c2cc(I)ccc2C(=O)O)n1 [(B3.1.4), iodosulfuron-methyl sodium salt, reference compound]
damage, HORVW (winter barley [1]): 0%
herbicidal effect, PAPRH (Papaver rhoeas): 0%

CCOc1ccccc1OS(=O)(=O)NC(=O)Nc1nc(OC)cc(OC)n1 [(B2.1.9), ethoxysulfuron, reference compound]
herbicidal effect, EPHHL (Euphorbia heterophylla; 22.5 g of ai/ha): 45%
herbicidal effect, EPHHL (Euphorbia heterophylla; 45 g of ai/ha): 65%
damage, ORYSA (Oryza sativa (rice) [2]): 0%

C#CCN(C)c1c(C#N)cnn1-c1nn2c(c1Cl)CCCC2 [(B1.6.14), reference compound]
herbicidal effect, MOOVA (Monochoria vaginalis; 25 g of ai/ha): 82%
damage, ORYSA (Oryza sativa (rice) [3]; in vivo): 0%

CCOC(=O)C(Cl)Cc1cc(-n2nc(C)n(C(F)F)c2=O)c(F)cc1Cl (stereo not shown) [(B2.6.3), carfentrazone-ethyl, reference compound]
herbicidal effect, MOOVA (Monochoria vaginalis; 60 g of ai/ha): 47%
damage, ORYSA (Oryza sativa (rice) [3]; 60 g of ai/ha, 14 days after application): 0%

Cc1cc(Cl)ccc1O[C@@H](C)C(=O)O [(B2.2.4), mecoprop-P]
herbicidal effect, MATCH (Matricaria chamomilla; 750 g of ai/ha): 54%
herbicidal effect, MATCH (Matricaria chamomilla; 1500 g of ai/ha): 63%
damage, TRZAS (summer wheat [4]; 750 g of ai/ha): 0%
damage, TRZAS (summer wheat [4]; 1500 g of ai/ha): 0%

COc1cc(OC)nc(NC(=O)NS(=O)(=O)N(C)S(C)(=O)=O)n1 [(B2.1.4), amidosulfuron, reference compound]
herbicidal effect, LAMAM (Lamium amolexicaule; 12.5 g of ai/ha): 10%
herbicidal effect, LAMAM (Lamium amolexicaule; 25 g of ai/ha): 25%
damage, TRZAW (winter wheat [5]; 12.5 g of ai/ha): 0%
damage, TRZAW (winter wheat [5]; 25 g of ai/ha): 0%

N#Cc1cc(Br)c(O)c(Br)c1 [(B2.3.1), bromoxynil]
herbicidal effect, SORVE (Sorghum verticilliflorum; 225 g of ai/ha): 0%
herbicidal effect, SORVE (Sorghum verticilliflorum; 450 g of ai/ha): 25%
damage, TRZAS (summer wheat [6]; 225 g of ai/ha): 0%
damage, TRZAS (summer wheat [6]; 450 g of ai/ha): 0%

CC(C)(F)c1nc(N)nc(NC(CCCc2ccccc2)C2CC2)n1 (stereo not shown) [(A2), 4-amino-6-(1-fluoro-1-methylethyl)-2-(4-phenyl-1-cyclopropylbutylamino)-1,3,5-triazine]
damage, HORVW (winter barley [7]): 0%
damage, TRZAW (winter wheat [8]): 0%
herbicidal effect, ALOMY (Alopecurus myosuroides): 0%
herbicidal effect, CAPBP (Capsella bursa-pastoris): 90%
